Test results published in patent publication US10551389B2, “Target binding molecules identified by kinetic target-guided synthesis” (UNIVERSITY OF SOUTH FLORIDA, priority 2013, dated 2020).

How the values were obtained:
[1] = target: Mcl-1 (Homo sapiens, UniProt Q07820); assay: Inhibition of Mcl-1 (disruption of Mcl-1/Bim interaction); type: binding; details: for inhibition at 25 µM / % Inhibition (25 μM) Mcl-1: compound at 25 μM; for inhibition at 50 µM / % Inhibition (50 μM) Mcl-1: compound at 50 μM
Mcl-1, sequence (Q07820 whole entry, species assumed): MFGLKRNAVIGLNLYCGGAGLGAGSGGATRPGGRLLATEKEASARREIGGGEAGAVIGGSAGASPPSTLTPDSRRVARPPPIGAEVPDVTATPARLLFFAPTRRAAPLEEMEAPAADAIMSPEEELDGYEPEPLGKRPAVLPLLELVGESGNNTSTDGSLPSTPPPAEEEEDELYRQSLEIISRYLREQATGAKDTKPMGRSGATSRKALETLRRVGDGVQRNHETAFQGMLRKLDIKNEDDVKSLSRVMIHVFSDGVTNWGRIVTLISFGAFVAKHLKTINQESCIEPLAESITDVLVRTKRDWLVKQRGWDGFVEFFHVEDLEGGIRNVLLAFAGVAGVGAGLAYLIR
Protocol: (§1) In a subsequent study, a structurally diverse library of forty five thio acids and thirty eight sulfonyl azides (identified above) was screened in parallel against Mcl-1 and Bcl-XL using the above mentioned approach. Several potential hit combinations were identified (Table 3). All of these kinetic TGS hit compounds were synthesized (identified above and in Table 3). All the reactions were performed at 20-30 mg scale. The 9-fluorenylmethyl thioester was placed in a 2.0 mL vial and 3.5% DBU/dry DMF solution was added (per 1 μmol of thioester, 4.7 μL, of 3.5% DBU/dry DMF solution was added) and the reaction was stirred for one minute. Then the sulfonylazide (1 eq to thioester) was added to the reaction mixture and immediately bubbling was observed. After the reaction was completed (approximately one minute, monitored by LC-MS) water (200 μL) was added and the pH was adjusted to 7.0 using 1M HCl solution. The reaction mixture was extracted with DCM until there is no product in the aqueous layer (checked by TLC or LC-MS). The product was purified by flash chromatography. Testing of these acylsulfonamides has shown that the hit compounds disrupt the Bcl-XL/Bim or Mcl-1/Bim interaction (Table 3).

[2] = target: Bcl-XL (Homo sapiens, UniProt Q07817); assay: Inhibition of Bcl-XL (disruption of Bcl-XL/Bim interaction); type: binding; details: for inhibition at 25 µM / % Inhibition (25 μM) Bcl-XL: compound at 25 μM; for inhibition at 50 µM / % Inhibition (50 μM) Bcl-XL: compound at 50 μM
Bcl-XL, sequence (Q07817 whole entry, species assumed): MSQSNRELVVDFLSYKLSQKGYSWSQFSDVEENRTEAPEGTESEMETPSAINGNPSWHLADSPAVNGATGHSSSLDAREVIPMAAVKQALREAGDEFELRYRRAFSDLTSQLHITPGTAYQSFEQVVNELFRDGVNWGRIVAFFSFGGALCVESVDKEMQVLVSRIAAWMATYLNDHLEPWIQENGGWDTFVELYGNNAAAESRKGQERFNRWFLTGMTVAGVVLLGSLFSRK
Protocol: as §1

SMILES | IC50 [1] | inhibition at 25 µM [1] | inhibition at 50 µM [1] | IC50 [2] | inhibition at 25 µM [2] | inhibition at 50 µM [2] | % Inhibition (50 μM) Mcl-1 [1] | % Inhibition (50 μM) Bcl-XL [2] | % Inhibition (25 μM) Mcl-1 [1] | % Inhibition (25 μM) Bcl-XL [2]
CC1(C)CCN(c2ccc(C(=O)NS(=O)(=O)c3ccc4ccc(S(=O)(=O)NCCSc5ccccc5)cc4c3)cc2)CC1 [SZ7TA2] | 16.9 µM | 49.6% | 93.9% | 28.6 µM | 15.5% | 73% |  |  |  | 
O=C(NS(=O)(=O)c1ccc(CNc2cccc([N+](=O)[O-])c2)cc1)c1ccc(CN2C(=O)C(c3ccc(F)cc3F)=C(c3ccc(F)cc3F)C2=O)cc1 [SZ12TA42] | 13.6 µM | 77.3% |  |  | 14% | 22.6% |  |  |  | 
COc1cc(OC)cc(C(=O)NS(=O)(=O)c2ccc(CN(CCSc3ccccc3)Cc3c(F)cccc3Cl)cc2)c1 [SZ15TA5] | 13.4 µM |  |  | 53 µM |  |  | >99.0% | 38.4% |  | 
COc1cccc(CN(CCSc2ccccc2)Cc2ccc(S(=O)(=O)NC(=O)c3ccc4c(c3)c(C(=O)c3cccs3)cn4C)cc2)c1 [SZ17TA45] |  |  |  |  |  |  | 34.5% | <2.0% | 62.7% | 6.8%
COc1cccc(CN(CCSc2ccccc2)Cc2ccc(S(=O)(=O)NC(=O)c3ccc(CCc4ccccn4)cc3)cc2)c1 [SZ17TA17] |  |  |  |  |  |  | 89.0% | 58.4% | 73.9% | 68.1%
Cn1cc(C(=O)C2CCCCC2)c2cc(C(=O)NS(=O)(=O)c3ccc(-c4ccc(C(C)(C)C)cc4)cc3)ccc21 [SZ11TA40] | 21.9 µM | 74% | > 99% |  | 30.7% | 58.7% |  |  |  | 
NS(=O)(=O)c1ccc(CN(CCSc2ccccc2)Cc2ccc(S(=O)(=O)NC(=O)Cn3c4ccccc4c4ccccc43)cc2)cc1 [SZ10TA15] |  |  |  |  |  |  | 37.4% | <2.0% | 35.2% | 9.4%
CC1(C)CCN(c2ccc(C(=O)NS(=O)(=O)c3ccc(CN(CCSc4ccccc4)Cc4ccc(S(N)(=O)=O)cc4)cc3)cc2)CC1 [SZ10TA2] | 15.8 µM | 41.7% | 94.7% | 44 µM |  | 52.1% |  |  |  | 
COc1cc2c(cc1OC)C(c1ccccc1)N(Cc1ccc(S(=O)(=O)NC(=O)CCCN3C(=O)C(c4ccc(F)cc4F)=C(c4ccc(F)cc4F)C3=O)cc1)CC2 (stereo not drawn) [SZ8TA20] |  | 23.5% |  |  | 9.1% | < 2% |  |  |  | 
O=C(NS(=O)(=O)c1ccc(-c2cc3ccccc3s2)cc1)c1ccc(CN2C(=O)C(c3ccc(F)cc3F)=C(c3ccc(F)cc3F)C2=O)cc1 [SZ37TA42] |  |  |  |  |  |  | 22.7% | <2.0% | <2.0% | 21.8%
[N-]=[N+]=NS(=O)(=O)c1ccc(CN(CCSc2ccccc2)Cc2ccc(S(=O)(=O)NC(=O)c3ccccc3)cc2)cc1 [SZ9TA1] | 19.8 µM |  |  |  |  | 79.5% |  |  |  | 
Cc1nc(-c2ccccc2)sc1C(=O)NS(=O)(=O)c1ccc(CN(CCSc2ccccc2)Cc2ccc3c(c2)OCO3)cc1 [SZ31TA3] | 9.4 µM | 69.9% | 100% |  | 29.6% | 51.3% |  |  |  | 
NS(=O)(=O)c1ccc(CN(CCSc2ccccc2)Cc2ccc(S(=O)(=O)NC(=O)c3ccc(-c4ccccn4)cc3)cc2)cc1 [SZ10TA25] |  |  |  |  |  |  | 93.6% | 53.4% | 43.9% | 33.9%
[N-]=[N+]=NS(=O)(=O)c1ccc(CN(CCSc2ccccc2)Cc2ccc(S(=O)(=O)NC(=O)c3ccc(CCc4ccccn4)cc3)cc2)cc1 [SZ9TA17] | 20.4 µM | 69.3% | 103% |  | 50% | 63.5% |  |  |  | 
O=C(NS(=O)(=O)c1ccc(CN(CCSc2ccccc2)Cc2c(F)cccc2Cl)cc1)c1ccc(-c2ccccn2)cc1 [SZ15TA25] | 15.3 µM | 77.2% |  |  | 43% | 57.8% |  |  |  | 
